Source: article PMC8661056, “Synthesis and Evaluation of [^11C]7-Halogen-2-Phenyl Isoindolone Derivatives: Potential PET Radioligands for in vivo Imaging of 5-HT2C Receptors” (Frontiers in Neuroscience, 2021)

Columns and labels:
5-HT2C = biological target: T1, 5-HT2C (Homo sapiens, UniProt P28335); assay: 5-HT2C competition binding assay with [^3H]mesulergine (NIMH PDSP); settings: for Ki: competition with [^3H]mesulergine, mean of three experiments ± SD, read-out: Binding affinity Ki, 5-HT2C; for 5-HT2C binding less than that for 9: relative to compound 9
T1 sequence (P28335 33-458): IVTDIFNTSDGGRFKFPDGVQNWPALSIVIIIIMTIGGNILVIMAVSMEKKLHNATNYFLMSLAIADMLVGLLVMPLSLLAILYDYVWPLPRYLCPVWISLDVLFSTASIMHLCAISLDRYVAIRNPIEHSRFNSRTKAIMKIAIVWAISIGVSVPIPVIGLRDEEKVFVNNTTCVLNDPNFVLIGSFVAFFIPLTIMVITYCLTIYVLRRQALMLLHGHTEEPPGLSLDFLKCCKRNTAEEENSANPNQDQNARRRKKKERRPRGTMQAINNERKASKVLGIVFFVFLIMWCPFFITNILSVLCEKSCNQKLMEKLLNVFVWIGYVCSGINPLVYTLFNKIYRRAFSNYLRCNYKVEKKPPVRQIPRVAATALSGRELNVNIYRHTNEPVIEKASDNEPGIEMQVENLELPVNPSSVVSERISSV
Source text: (§1) We selected 6 and 9 for carbon-11 radiolabelling and PET imaging studies.

5-HT2A [1] = biological target: T2, 5-HT2A (Homo sapiens, UniProt P28223); assay: competition binding assay (NIMH PDSP), 5-HT2A; settings: read-out: Binding affinity Ki, 5-HT2A
5-HT2B = 5-HT2B (Homo sapiens, UniProt P41595); assay: competition binding assay (NIMH PDSP), 5-HT2B; settings: mean of three experiments ± SD, read-out: Binding affinity Ki, 5-HT2B
5-HT1A = biological target: T3, 5-HT1A (Homo sapiens, UniProt P08908); assay: competition binding assay (NIMH PDSP), 5-HT1A; settings: read-out: Binding affinity Ki, 5-HT1A
T3 sequence (P08908 1-422): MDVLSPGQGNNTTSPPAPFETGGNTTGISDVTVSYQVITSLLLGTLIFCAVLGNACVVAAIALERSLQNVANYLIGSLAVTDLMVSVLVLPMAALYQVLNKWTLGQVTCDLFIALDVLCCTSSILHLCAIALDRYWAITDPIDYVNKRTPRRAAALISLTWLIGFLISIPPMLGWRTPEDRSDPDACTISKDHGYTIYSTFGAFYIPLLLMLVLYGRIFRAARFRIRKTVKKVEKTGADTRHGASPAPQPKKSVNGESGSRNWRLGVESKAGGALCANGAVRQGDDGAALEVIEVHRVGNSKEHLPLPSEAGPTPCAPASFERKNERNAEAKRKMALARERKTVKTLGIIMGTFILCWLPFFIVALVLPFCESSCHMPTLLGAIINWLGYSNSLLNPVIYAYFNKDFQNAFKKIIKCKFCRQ

5-HT5–7 = assay: competition binding assay (NIMH PDSP), 5-HT5–7; settings: read-out: Binding affinity Ki, 5-HT5–7
D1-D5 = assay: competition binding assay (NIMH PDSP), dopamine D1-D5; settings: read-out: Binding affinity Ki, D1-D5
5-HT2A [2] = biological target: T2, 5-HT2A; assay: primary binding, 5-HT2A
Source text: as §1

[3] = design: method as in Hamprecht et al., 2007; settings: ref Hamprecht et al., 2007; cited from earlier work
[4] = solubility in the injection form; format: physicochemical; settings: 10% ethanol in saline
Experimental: To test specific binding of [^11C]6 and [^11C]9 to the choroid plexus and hippocampus, an in vivo microPET blocking study was performed with 0.1 mg/kg SB-242084 30 min prior to injection, respectively. Unfortunately, due to the unexpected low solubility of SB-242084 in the injection form (10% ethanol in saline), the administered SB-242084 in soluble form to the monkeys was likely much less than the target 0.1 mg/kg. As a result, the uptake of [^11C]6 and [^11C]9 in the choroid plexus and hippocampus was still present.

5-HT2CR = settings: no reference given; cited from earlier work

T2 sequence (P28223 whole entry, species assumed): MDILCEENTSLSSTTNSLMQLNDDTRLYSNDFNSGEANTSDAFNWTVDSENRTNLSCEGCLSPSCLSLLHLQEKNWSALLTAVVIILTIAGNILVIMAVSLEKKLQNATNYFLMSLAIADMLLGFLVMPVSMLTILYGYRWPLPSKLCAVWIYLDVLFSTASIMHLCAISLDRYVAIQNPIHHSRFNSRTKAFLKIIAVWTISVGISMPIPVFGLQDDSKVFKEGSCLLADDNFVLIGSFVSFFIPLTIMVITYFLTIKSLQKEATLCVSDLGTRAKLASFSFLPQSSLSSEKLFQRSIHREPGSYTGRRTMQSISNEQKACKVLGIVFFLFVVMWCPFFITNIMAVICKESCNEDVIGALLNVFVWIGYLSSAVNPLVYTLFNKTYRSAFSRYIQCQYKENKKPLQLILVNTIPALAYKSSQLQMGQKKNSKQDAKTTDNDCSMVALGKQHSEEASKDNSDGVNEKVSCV
Sequence of 5-HT2B (P41595 whole entry, species assumed): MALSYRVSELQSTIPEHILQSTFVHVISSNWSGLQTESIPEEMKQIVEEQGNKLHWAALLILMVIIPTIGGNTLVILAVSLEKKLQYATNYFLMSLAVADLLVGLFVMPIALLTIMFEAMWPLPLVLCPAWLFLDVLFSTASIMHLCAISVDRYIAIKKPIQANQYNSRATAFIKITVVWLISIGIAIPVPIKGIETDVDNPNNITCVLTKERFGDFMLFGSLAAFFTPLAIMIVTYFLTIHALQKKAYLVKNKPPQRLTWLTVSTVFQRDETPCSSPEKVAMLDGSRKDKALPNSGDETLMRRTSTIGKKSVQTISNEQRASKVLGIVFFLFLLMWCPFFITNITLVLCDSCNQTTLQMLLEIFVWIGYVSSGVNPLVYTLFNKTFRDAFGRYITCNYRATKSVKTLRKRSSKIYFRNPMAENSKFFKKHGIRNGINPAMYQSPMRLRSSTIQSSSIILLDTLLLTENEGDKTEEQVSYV

| Structure (SMILES) | Ki (5-HT2C) [nM] | 5-HT2C binding less than that for 9 (5-HT2C) | Ki (5-HT2A [1]) [nM] | Ki (5-HT2B) [nM] | Ki (5-HT1A) [nM] | Ki (5-HT5–7) [nM] | Ki (D1-D5) [nM] | primary bindings at 5-HT2A (5-HT2A [2]) [%] | brain permeability as measured by brain to blood plasma ratio [3] | solubility in the injection form [4] | Ki (5-HT2CR) [nM] |
| --- | --- | --- | --- | --- | --- | --- | --- | --- | --- | --- | --- |
| COc1ccc(N2Cc3cccc(Cl)c3C2=O)cc1OCCN1CCC(C)CC1 [Compound 6, 7-chloro-2-[4-methoxy-3-[2-(4-methylpiperidin-1-yl)ethoxy]phenyl]isoindolin-1-one] | 2.2 ± 0.3 | 2–3 times | > 1000 | 194 ± 74 | > 1000 | > 1000 | > 1000 | < 50 | great | – | – |
| COc1ccc(N2Cc3cccc(Br)c3C2=O)cc1OCCN1CCC(C)CC1 [Compound 7] | 2.9 ± 0.7 | 2–3 times | > 1000 | 177 ± 75 | > 1000 | > 1000 | > 1000 | < 50 | great | – | – |
| COc1ccc(N2Cc3cccc(F)c3C2=O)cc1OCCN1CCC(C)CC1 [Compound 8] | 28 ± 14 | – | > 1000 | 434 ± 204 | > 1000 | > 1000 | > 1000 | – | – | – | – |
| COc1ccc(N2Cc3cccc(I)c3C2=O)cc1OCCN1CCC(C)CC1 [Compound 9, 7-iodo-2-[4-methoxy-3-[2-(4-methylpiperidin-1-yl)ethoxy]phenyl]isoindolin-1-one] | 1.1 ± 0.3 | – | > 1000 | 126 ± 28 | > 1000 | > 1000 | > 1000 | < 50 | – | – | – |
| Cc1cc2c(cc1Cl)N(C(=O)Nc1ccc(Oc3cccnc3C)nc1)CC2 [SB-242084] | – | – | – | – | – | – | – | – | – | low | 3.6 |
